From ChEMBL document CHEMBL6114939, “Identification of Dual Inhibitors Targeting Main Protease (Mpro) and Cathepsin L as Potential Anti-SARS-CoV-2 Agents” (ACS Med Chem Lett, 2024)

Experiment: Antiviral activity against SARS-CoV-2 infected in human Huh-7 cells overexpressing human ACE2 pre-infected with cells for 1 hr followed by compound addition and measured 23 hrs post infection by virus plaque assay
Format: functional, cell-based

In order of falling EC50:
1. CC(=O)/C=C/[C@H](C[C@@H]1CCNC1=O)NC(=O)[C@H](CC1CC1)NC(=O)c1ccccc1F  10.3 µM
2. CC(=O)/C=C/[C@H](C[C@@H]1CCNC1=O)NC(=O)[C@H](CC(C)C)NC(=O)c1ccc(F)cc1  7.63 µM
3. CC(=O)/C=C/[C@H](C[C@@H]1CCNC1=O)NC(=O)[C@H](CC(C)(C)C)NC(=O)c1ccc(F)cc1  3.5 µM
